Results taken from patent publication USRE30241E, “Esters of 3-(hydroxy or hydroxymethyl)-4-hydroxyphenyl aminomethyl ketones” (Sterling Drug Inc., priority 1970, dated 1980).

Legend:
[1] = system: carbachol- or histamine-induced bronchoconstriction; test: Bronchodilator Test Method I, anesthetized dog, intravenous activity; format: in vivo; details: Canis lupus familiaris, read-out: Bronchodilatation; for inhibition in vivo at 0.07 mg/kg: 70 mcg/kg i.v.; for inhibition in vivo at 0.14 mg/kg: 140 mcg/kg i.v.; for inhibition in vivo at 0.28 mg/kg: 280 mcg/kg i.v.
How it was run: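 Pentobarbital-anesthetized (30 mg/kg i.v.), open-chest, artificially ventilated dogs were given i.v. carbachol (4-6 µg/kg) or histamine diphosphate (35-45 µg/kg). Test compound was given i.v. mixed with, after, or 1-10 min before the constrictor.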

[2] = system: guinea pig bronchioles constricted by carbachol; test: Bronchodilator Test Method II, in vitro perfused guinea pig lung
Procedure: In this method bronchodilator activity in vitro was determined by testing the effect of graded doses of the test compounds on guinea pig bronchioles constricted by carbachol, using the technique reported by Sollman and von Oettingen, Proc. Soc, Exp. Biol. Med., 25,692 (1928) as modified by Tainter, Pedden, and James, J. Pharm. Exp. Ther., 51, 371 (1934) and by Luduena, von Euler, Tullar, and Lands, Arch. intern. Pharmacol., III, 392 (1957).

[3] = Solubility and pH of salts; details: dimethyl sulfoxide, organic solvent or mixture
[4] = system: carbachol- or histamine-induced bronchoconstriction; test: Bronchodilator Test Method I, anesthetized dog, intraduodenal activity; format: in vivo; details: Canis lupus familiaris, read-out: Bronchodilation; for inhibition in vivo at 0.07 mg/kg: 70 mcg/kg (salt) intraduodenal; for inhibition in vivo at 0.14 mg/kg: 140 mcg/kg (salt) intraduodenal; for inhibition in vivo at 0.28 mg/kg: 280 mcg/kg (salt) intraduodenal
How it was run: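 Pentobarbital-anesthetized (30 mg/kg i.v.) open-chest dogs of 9-18 kg, artificially ventilated; airway pressure recorded via tracheal cannula transducer. Test solution injected intraduodenally; from 5 min, i.v. carbachol (4-6 μg/kg) or histamine diphosphate (35-45 μg/kg) challenges every 30-60 min gauged degree and duration of bronchodilation.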

diastolic blood pressure = test: Effect on diastolic blood pressure in the anesthetized dog; format: in vivo
How it was run: (§1)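 Anesthetized dogs, mostly spontaneously breathing, some open-chest, given rapid intravenous injections. Heart rate by electrocardiograph with blood pressure recorded simultaneously, every 0.5-1 minute for 10 minutes then every 2-5 minutes until recovery; several doses or compounds sometimes tested alternately in one dog.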

heart rate = test: Cardiovascular studies: effect on the heart rate in the anesthetized dog; format: in vivo
How it was run: as §1

Question: With `Cc1ccc(C(=O)Oc2ccc(C(O)CNC(C)(C)C)cc2OC(=O)c2ccc(C)cc2)cc1` (stereo not drawn) [Example 30, 3,4-bis(p-toluyloxy)-alpha-(tert-butylaminomethyl)benzyl alcohol methanesulfonate] as the compound, how does the inhibition in vivo at 0.07 mg/kg ([1]; 5 min, 5 min) read?
Answer: 54%

Question: What about the inhibition in vivo at 0.14 mg/kg ([1]; 5 min, 5 min) of the same compound?
Answer: 65%

Question: What about the inhibition in vivo at 0.28 mg/kg ([1]; 5 min, 5 min) of the same compound?
Answer: 83%

Question: What about the inhibition in vivo at 0.07 mg/kg ([1]; 0.5 h, 30 min) of the same compound?
Answer: 63%

Question: And the inhibition in vivo at 0.14 mg/kg ([1]; 0.5 h, 30 min)?
Answer: 76%

Question: What about the inhibition in vivo at 0.28 mg/kg ([1]; 0.5 h, 30 min) of the same compound?
Answer: 88%

Question: And the inhibition in vivo at 0.07 mg/kg ([1]; 1 h, 60 min)?
Answer: 61%

Question: And the inhibition in vivo at 0.14 mg/kg ([1]; 1 h, 60 min)?
Answer: 69%

Question: What about the inhibition in vivo at 0.28 mg/kg ([1]; 1 h, 60 min) of the same compound?
Answer: 75%

Question: What about the inhibition in vivo at 0.07 mg/kg ([1]; 2 h, 120 min) of the same compound?
Answer: 52%

Question: And the inhibition in vivo at 0.14 mg/kg ([1]; 2 h, 120 min)?
Answer: 55%

Question: What about the inhibition in vivo at 0.28 mg/kg ([1]; 2 h, 120 min) of the same compound?
Answer: 72%

Question: What about the inhibition in vivo at 0.14 mg/kg ([1]; 3 h, 180 min) of the same compound?
Answer: 62%

Question: What about the inhibition in vivo at 0.28 mg/kg ([1]; 3 h, 180 min) of the same compound?
Answer: 64%

Question: What about the inhibition in vivo at 0.07 mg/kg ([1]; 4 h, 240 min) of the same compound?
Answer: 37%

Question: What about the inhibition in vivo at 0.28 mg/kg ([1]; 4 h, 240 min) of the same compound?
Answer: 50%

Question: What about the inhibition in vivo at 0.14 mg/kg ([1]; 4.5 h, 270 min) of the same compound?
Answer: 42%

Question: What about the ED50 ([2]; carbachol (Doryl) 1:5 million) of the same compound?
Answer: 3.2 µg (base)

Question: And the “Duration, Mean” value ([2]; dose 10 mcg (base))?
Answer: 60 ± 9.6 min

Question: And the solubility [3]?
Answer: ≥ 10000 µg/mL

Question: And the inhibition in vivo at 0.07 mg/kg ([4]; 10 min, 10 min, mean of 3 dogs)?
Answer: 38%

Question: What about the inhibition in vivo at 0.14 mg/kg ([4]; 10 min, 10 min) of the same compound?
Answer: 30%

Question: What about the inhibition in vivo at 0.28 mg/kg ([4]; 10 min, 10 min) of the same compound?
Answer: 75%

Question: And the inhibition in vivo at 0.07 mg/kg ([4]; 0.5 h, 30 min)?
Answer: 45%

Question: And the inhibition in vivo at 0.14 mg/kg ([4]; 0.5 h, 30 min)?
Answer: 35%

Question: And the inhibition in vivo at 0.28 mg/kg ([4]; 0.5 h, 30 min)?
Answer: 71%

Question: What about the inhibition in vivo at 0.07 mg/kg ([4]; 1 h, 60 min) of the same compound?
Answer: 42%

Question: And the inhibition in vivo at 0.14 mg/kg ([4]; 1 h, 60 min)?
Answer: 36%

Question: And the inhibition in vivo at 0.28 mg/kg ([4]; 1 h, 60 min, mean of 3 dogs)?
Answer: 64%

Question: What about the inhibition in vivo at 0.07 mg/kg ([4]; 2 h, 120 min, mean of 3 dogs) of the same compound?
Answer: 42%

Question: What about the inhibition in vivo at 0.14 mg/kg ([4]; 2 h, 120 min) of the same compound?
Answer: 45%

Question: What about the inhibition in vivo at 0.28 mg/kg ([4]; 2 h, 120 min) of the same compound?
Answer: 56%

Question: What about the inhibition in vivo at 0.07 mg/kg ([4]; 3 h, 180 min) of the same compound?
Answer: 42%

Question: And the inhibition in vivo at 0.14 mg/kg ([4]; 3 h, 180 min)?
Answer: 40%

Question: What about the inhibition in vivo at 0.28 mg/kg ([4]; 3 h, 180 min) of the same compound?
Answer: 50%

Question: What about the inhibition in vivo at 0.07 mg/kg ([4]; 4 h, 240 min, mean of 3 dogs) of the same compound?
Answer: 25%

Question: What about the inhibition in vivo at 0.14 mg/kg ([4]; 4 h, 240 min) of the same compound?
Answer: 47%

Question: And the inhibition in vivo at 0.28 mg/kg ([4]; 4 h, 240 min, mean of 3 dogs)?
Answer: 45%

Question: And the inhibition in vivo at 0.28 mg/kg ([4]; 5 h, 300 min, mean of 3 dogs)?
Answer: 37%

Question: What about the “Mean Decrease in Diastolic Blood Pressure” value (from here on “Mean Decrease”) (diastolic blood pressure; 70 meg/kg (salt) i.v.) of the same compound?
Answer: 2%

Question: And the “Mean Decrease” value (diastolic blood pressure; 140 meg/kg (salt) i.v.)?
Answer: 11%

Question: And the “Mean Decrease” value (diastolic blood pressure; 280 meg/kg (salt) i.v.)?
Answer: 11.5%

Question: What about the “Mean Maximal Increase in the Heart Rate” value (heart rate; 70 mcg/kg (salt) i.v.) of the same compound?
Answer: 9%

Question: What about the “Mean Maximal Increase in the Heart Rate” value (heart rate; 140 mcg/kg (salt) i.v.) of the same compound?
Answer: 15%

Question: What about the “Mean Maximal Increase in the Heart Rate” value (heart rate; 280 mcg/kg (salt) i.v.) of the same compound?
Answer: 28%
